In brackets after ≈: the same amount, converted by molar mass. Where two headings read alike, the source gives them in different places.
Tests used:
[1] = biological target: human (hACC2) (Homo sapiens, UniProt O00763); test: In vitro ACC inhibition assay (ADP-Glo), hACC2; format: biochemical; details: 5 nM ACC2, 20 μM ATP, 20 μM acetyl-CoA
Experimental: The detailed procedure is as follows. […] 10 μL ADP glo reagent was added. […] 20 μL kinase detection reagent was added.

[2] = test system: C. albicans; test: Antifungal Activity Assay (broth microtiter MIC), C. albicans; format: cell-based, Candida albicans; details: 3 replicates, MIC recorded at 48 h; for MIC: Candida albicans, ATCC90028, 48 h, ATCC 90028, read-out: MIC, C. albicans ATCC 90028
Experimental: (§1) Compounds of the present invention were evaluated in an Antifungal Activity Assay. An exemplary procedure for the assay, which measures the susceptibility of various Candida species to antifungal compounds, follows. Compounds to be tested (including fluconazole and amphotericin B) were dissolved in DMSO to obtain a solution having a concentration of 1 mg/mL. These stock solutions were sterile filtered using a 0.22 um nylon syringe filter, then diluted in sterile water to achieve a final concentration of 128 μg/mL.
(§2) All species were grown from frozen stock by directly plating on to freshly prepared Sabouraud Dextrose agar (BD, Difco) and incubated overnight in ambient air at 35° C. for 24 h. A direct suspension was prepared in RPMI 1640+MOPS (Lonza, Biowhittaker) by taking individual colonies from the overnight cultures using sterile swabs soaked in sterile saline. The concentration of the suspension was determined using pre-determined standard curves. These suspensions were then diluted down to 5×10^3 CFU/mL to achieve a final concentration of 2.5×10^3 CFU/mL once added to the microtiter plate as per CLSI guidelines (M27-A3, Vol. 28 No. 14).
(§3) Broth microtiter MIC challenge plates were prepared following CLSI guidelines (M27-A3, Vol. 28 No. 14). The original CLSI guidelines focused on reading Candida MICs after 48 h of incubation. As reading after only 24 h offers a clear advantage of patient care, QC limits are being established for all drugs at 24 h. That being said there are no known interpretive breakpoints for amphotericin B at 24 h and the current fluconazole interpretive breakpoints are based on a 48 h reading. The MICs for the test compounds were recorded at 48 h. All MIC determinations were achieved by visually comparing the growth found in the antibiotic challenged wells to that of the growth control.

[3] = test system: C. krusei; test: Antifungal Activity Assay (broth microtiter MIC), C. krusei; format: cell-based, Candida krusei; details: 3 replicates, MIC recorded at 48 h; for MIC: Pichia kudriavzevii, ATCC6258, 48 h, ATCC 6258, read-out: MIC, C. krusei ATCC 6258
Experimental: as §1, §2, §3

[4] = test system: C. parapsilosis; test: Antifungal Activity Assay (broth microtiter MIC), C. parapsilosis; format: cell-based, Candida parapsilosis; details: 3 replicates, MIC recorded at 48 h; for MIC: Lodderomyces parapsilosis, ATCC22019, 48 h, ATCC 22019, read-out: MIC, C. parapsilosis ATCC 22019
Experimental: as §1, §2, §3

[5] = biological target: fungal (fACC2) (UniProt Q00955); details: read-out: fACC2 (in vitro ACC2 Inhibition Assay, IC50), ADP-Glo, 5 nM ACC2, 20 μM ATP, 20 μM acetyl-CoA
fungal (fACC2), sequence (Q00955 whole entry): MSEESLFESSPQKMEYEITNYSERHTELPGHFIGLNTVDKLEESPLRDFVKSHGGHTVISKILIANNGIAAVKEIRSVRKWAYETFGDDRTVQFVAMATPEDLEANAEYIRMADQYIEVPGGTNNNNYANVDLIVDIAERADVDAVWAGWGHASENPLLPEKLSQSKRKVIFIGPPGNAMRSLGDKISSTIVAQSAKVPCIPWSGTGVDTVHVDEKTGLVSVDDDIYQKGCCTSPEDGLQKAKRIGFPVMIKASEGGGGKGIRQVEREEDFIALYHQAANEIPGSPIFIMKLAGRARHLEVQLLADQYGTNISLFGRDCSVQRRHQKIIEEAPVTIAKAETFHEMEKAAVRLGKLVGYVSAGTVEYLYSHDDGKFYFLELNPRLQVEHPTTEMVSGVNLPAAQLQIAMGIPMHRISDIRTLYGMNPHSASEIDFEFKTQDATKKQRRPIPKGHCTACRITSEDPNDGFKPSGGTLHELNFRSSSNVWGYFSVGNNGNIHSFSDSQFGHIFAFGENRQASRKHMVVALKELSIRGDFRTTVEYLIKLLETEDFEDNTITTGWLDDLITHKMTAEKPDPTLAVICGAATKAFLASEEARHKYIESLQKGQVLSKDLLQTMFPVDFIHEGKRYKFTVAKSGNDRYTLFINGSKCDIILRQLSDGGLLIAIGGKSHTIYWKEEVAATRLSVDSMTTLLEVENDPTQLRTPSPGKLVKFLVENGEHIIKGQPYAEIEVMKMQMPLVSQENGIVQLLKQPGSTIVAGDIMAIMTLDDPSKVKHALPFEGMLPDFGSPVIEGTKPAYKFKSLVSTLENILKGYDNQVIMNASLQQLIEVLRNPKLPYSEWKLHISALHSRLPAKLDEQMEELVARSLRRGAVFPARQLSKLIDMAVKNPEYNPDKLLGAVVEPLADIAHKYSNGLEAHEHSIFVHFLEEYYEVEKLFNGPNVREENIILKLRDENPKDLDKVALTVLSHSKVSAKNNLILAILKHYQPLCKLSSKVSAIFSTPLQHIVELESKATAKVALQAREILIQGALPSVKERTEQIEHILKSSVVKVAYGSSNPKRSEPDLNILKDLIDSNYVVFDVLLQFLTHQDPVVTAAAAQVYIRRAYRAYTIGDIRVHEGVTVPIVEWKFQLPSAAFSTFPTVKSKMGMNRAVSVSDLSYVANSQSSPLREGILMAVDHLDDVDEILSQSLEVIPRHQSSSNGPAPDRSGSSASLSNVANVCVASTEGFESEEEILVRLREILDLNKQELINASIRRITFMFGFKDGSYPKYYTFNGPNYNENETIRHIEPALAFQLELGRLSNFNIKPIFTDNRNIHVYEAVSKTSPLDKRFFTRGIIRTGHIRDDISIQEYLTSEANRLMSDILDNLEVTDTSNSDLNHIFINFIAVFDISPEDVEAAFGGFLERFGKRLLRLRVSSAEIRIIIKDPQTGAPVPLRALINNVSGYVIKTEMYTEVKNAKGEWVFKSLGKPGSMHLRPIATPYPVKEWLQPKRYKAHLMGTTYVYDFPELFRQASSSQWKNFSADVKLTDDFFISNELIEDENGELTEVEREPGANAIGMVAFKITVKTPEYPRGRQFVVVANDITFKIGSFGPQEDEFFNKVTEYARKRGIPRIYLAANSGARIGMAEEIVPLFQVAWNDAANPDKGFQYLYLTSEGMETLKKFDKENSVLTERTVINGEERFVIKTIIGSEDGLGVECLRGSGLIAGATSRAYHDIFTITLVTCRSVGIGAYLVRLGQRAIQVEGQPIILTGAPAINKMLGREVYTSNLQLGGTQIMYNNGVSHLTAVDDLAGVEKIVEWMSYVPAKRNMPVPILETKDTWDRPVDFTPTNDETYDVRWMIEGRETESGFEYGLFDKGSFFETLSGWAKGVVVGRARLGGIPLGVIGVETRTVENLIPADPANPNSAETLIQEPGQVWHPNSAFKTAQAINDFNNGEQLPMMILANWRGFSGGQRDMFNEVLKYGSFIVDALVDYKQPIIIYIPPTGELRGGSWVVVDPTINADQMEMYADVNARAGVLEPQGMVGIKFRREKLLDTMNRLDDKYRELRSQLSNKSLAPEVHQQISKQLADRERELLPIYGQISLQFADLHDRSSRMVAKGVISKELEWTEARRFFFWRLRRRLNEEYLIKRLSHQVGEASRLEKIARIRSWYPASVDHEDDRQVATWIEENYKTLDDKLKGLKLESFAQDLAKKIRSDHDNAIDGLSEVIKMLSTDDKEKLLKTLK

human (hACC2), sequence (O00763 whole entry): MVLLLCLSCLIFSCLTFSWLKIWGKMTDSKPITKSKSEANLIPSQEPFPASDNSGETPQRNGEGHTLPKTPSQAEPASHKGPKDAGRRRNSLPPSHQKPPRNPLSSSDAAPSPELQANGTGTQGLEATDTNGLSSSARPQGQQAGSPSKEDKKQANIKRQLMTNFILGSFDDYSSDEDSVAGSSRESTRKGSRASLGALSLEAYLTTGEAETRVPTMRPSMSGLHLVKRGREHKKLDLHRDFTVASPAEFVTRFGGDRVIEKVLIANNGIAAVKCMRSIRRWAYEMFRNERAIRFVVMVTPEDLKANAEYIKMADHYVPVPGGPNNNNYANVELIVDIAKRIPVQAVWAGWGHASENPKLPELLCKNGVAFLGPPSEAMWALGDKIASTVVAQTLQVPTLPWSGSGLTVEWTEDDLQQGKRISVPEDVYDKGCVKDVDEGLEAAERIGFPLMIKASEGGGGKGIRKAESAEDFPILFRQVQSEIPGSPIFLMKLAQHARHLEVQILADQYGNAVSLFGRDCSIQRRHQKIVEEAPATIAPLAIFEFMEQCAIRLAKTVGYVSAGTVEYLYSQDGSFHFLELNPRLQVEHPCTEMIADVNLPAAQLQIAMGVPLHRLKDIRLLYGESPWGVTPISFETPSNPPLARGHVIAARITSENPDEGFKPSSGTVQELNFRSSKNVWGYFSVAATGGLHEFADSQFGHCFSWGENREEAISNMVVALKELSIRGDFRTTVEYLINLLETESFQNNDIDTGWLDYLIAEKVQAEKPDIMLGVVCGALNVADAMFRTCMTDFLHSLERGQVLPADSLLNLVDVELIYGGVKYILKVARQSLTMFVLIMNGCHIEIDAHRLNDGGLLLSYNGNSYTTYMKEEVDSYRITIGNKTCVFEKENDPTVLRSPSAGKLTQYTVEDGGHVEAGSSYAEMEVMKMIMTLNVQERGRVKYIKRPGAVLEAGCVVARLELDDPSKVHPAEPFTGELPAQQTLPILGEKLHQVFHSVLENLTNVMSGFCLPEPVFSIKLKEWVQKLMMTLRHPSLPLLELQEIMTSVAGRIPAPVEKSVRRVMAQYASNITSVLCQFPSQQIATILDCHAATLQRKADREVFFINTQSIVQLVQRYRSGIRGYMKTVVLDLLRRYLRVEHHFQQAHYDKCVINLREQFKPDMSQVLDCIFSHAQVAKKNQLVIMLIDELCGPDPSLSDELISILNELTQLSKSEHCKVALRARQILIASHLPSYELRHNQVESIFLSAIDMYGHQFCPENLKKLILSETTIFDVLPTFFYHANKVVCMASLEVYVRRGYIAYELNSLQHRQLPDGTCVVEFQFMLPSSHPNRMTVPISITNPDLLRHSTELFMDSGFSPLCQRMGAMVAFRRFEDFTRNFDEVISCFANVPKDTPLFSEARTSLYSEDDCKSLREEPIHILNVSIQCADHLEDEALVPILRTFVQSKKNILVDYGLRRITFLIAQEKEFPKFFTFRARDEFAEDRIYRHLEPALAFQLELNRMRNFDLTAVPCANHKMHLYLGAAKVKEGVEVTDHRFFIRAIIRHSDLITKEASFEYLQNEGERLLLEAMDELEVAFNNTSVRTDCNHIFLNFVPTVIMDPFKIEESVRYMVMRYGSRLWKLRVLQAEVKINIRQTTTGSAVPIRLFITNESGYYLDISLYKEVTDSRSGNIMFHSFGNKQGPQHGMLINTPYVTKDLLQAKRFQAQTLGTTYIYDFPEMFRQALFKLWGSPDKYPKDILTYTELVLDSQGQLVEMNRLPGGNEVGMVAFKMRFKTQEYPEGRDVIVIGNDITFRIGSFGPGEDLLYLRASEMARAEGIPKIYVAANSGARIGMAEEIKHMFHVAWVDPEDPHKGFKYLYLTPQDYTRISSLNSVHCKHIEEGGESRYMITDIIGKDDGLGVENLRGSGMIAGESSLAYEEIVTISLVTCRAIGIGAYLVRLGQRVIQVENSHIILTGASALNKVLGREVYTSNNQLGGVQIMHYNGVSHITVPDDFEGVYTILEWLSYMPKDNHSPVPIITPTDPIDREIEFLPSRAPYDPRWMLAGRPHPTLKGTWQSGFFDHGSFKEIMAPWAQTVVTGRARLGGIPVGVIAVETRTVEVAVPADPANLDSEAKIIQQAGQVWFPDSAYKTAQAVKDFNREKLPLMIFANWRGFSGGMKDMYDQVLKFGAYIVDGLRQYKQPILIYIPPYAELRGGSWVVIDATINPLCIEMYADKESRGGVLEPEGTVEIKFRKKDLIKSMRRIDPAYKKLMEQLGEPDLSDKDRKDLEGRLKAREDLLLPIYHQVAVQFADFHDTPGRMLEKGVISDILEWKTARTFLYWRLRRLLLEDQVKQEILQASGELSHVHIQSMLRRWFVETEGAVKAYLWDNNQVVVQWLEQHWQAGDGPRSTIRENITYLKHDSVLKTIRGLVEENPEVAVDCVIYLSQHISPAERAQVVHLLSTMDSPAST

Row | SMILES | IC50 ([1]; Table 2a) [nM] | IC50 ([1]; Table 2b, additional results) [nM] | MIC, C. albicans ATCC 90028 ([2]; Table 3a) | MIC, C. albicans ATCC 90028 ([2]; Table 3b (additional results)) | MIC, C. krusei ATCC 6258 ([3]; Table 3a) | MIC, C. krusei ATCC 6258 ([3]; Table 3b (additional results)) | MIC, C. parapsilosis ATCC 22019 ([4]; Table 3a) | MIC, C. parapsilosis ATCC 22019 ([4]; Table 3b (additional results)) | IC50 ([5]; Table 2a) [nM] | IC50 ([5]; Table 2b, additional results) [nM] | MIC ([2]; Table 3a) [µg/mL] | MIC ([2]; Table 3b (additional results)) [µg/mL] | MIC ([3]; Table 3a) [µg/mL] | MIC ([3]; Table 3b (additional results)) [µg/mL] | MIC ([4]; Table 3a) [µg/mL] | MIC ([4]; Table 3b (additional results)) [µg/mL]
1 | COCCO[C@@H](Cn1c(=O)n(C(C)(C)C(=O)NC2CCC2)c(=O)c2c(C)c(-n3nccn3)sc21)c1cc(F)ccc1OC [Compound I-102] | 1 to 5 | 1 to 5 | A (MIC of 0.25-1.0 μg/mL) | C (MIC of 2.01-4.0 μg/mL) | A (MIC of 0.25-1.0 μg/mL) | A (MIC of 0.25-1.0 μg/mL) | A (MIC of 0.25-1.0 μg/mL) | A (MIC of 0.25-1.0 μg/mL) | 1 to 5 | 1 to 5 | – | – | – | – | – | –
2 | COCCO[C@@H](Cn1c(=O)n(C(C)(C)C(=O)NC2CCCCC2)c(=O)c2c(C)c(-n3nccn3)sc21)c1cc(F)ccc1OC [Compound I-103] | 10 to 40 | 10 to 40 | – | – | – | – | – | – | 1 to 5 | 1 to 5 | 1.1 to 2 (≈ 1.71 to 3.11 µM) | 1.01 to 2 (≈ 1.57 to 3.11 µM) | 0.25 to 1 (≈ 0.389 to 1.56 µM) | 0.25 to 1 (≈ 0.389 to 1.56 µM) | 0.25 to 1 (≈ 0.389 to 1.56 µM) | 0.25 to 1 (≈ 0.389 to 1.56 µM)
3 | COc1ccc(F)cc1[C@H](Cn1c(=O)n(C(C)(C)C(=O)NC(C)C)c(=O)c2c(C)c(-n3nccn3)sc21)OCCC(C)=O [Compound I-104] | 1 to 5 | 1 to 5 | – | – | – | – | – | – | 1 to 5 | 1 to 5 | 0.25 to 1 (≈ 0.407 to 1.63 µM) | 0.25 to 1 (≈ 0.407 to 1.63 µM) | 0.06 to 0.24 (≈ 0.0976 to 0.39 µM) | 0.25 to 1 (≈ 0.407 to 1.63 µM) | 0.25 to 1 (≈ 0.407 to 1.63 µM) | 0.25 to 1 (≈ 0.407 to 1.63 µM)
4 | COc1ccc(F)cc1[C@H](Cn1c(=O)n(C(C)(C)C(=O)NC2CCC2)c(=O)c2c(C)c(-n3nccn3)sc21)OCCC(C)=O [Compound I-105] | 1 to 5 | 1 to 5 | – | – | – | – | – | – | 0.4 to 1 | 0.3 to 1 | 0.25 to 1 (≈ 0.399 to 1.6 µM) | 1.01 to 2 (≈ 1.61 to 3.19 µM) | 0.06 to 0.24 (≈ 0.0957 to 0.383 µM) | 0.25 to 1 (≈ 0.399 to 1.6 µM) | 0.25 to 1 (≈ 0.399 to 1.6 µM) | 0.25 to 1 (≈ 0.399 to 1.6 µM)
5 | COc1ccc(F)cc1[C@H](Cn1c(=O)n(C(C)(C)C(=O)NC2CCCCC2)c(=O)c2c(C)c(-n3nccn3)sc21)OCCC(C)=O [Compound I-106] | 5 to 10 | 5 to 10 | – | – | – | – | – | – | 1 to 5 | 1 to 5 | 1.1 to 2 (≈ 1.68 to 3.05 µM) | 1.01 to 2 (≈ 1.54 to 3.05 µM) | 0.25 to 1 (≈ 0.382 to 1.53 µM) | 0.25 to 1 (≈ 0.382 to 1.53 µM) | 0.25 to 1 (≈ 0.382 to 1.53 µM) | 0.25 to 1 (≈ 0.382 to 1.53 µM)
6 | Cc1c(-n2nccn2)sc2c1c(=O)n(C(C)(C)C(=O)NC(C)C)c(=O)n2C[C@H](OC1CCOCC1)c1cc(F)ccc1OCc1ccccc1 [Compound I-107] | 5 to 10 | 5 to 10 | – | – | – | – | – | – | 1 to 5 | 1 to 5 | 0.25 to 1 (≈ 0.355 to 1.42 µM) | 0.25 to 1 (≈ 0.355 to 1.42 µM) | 0.25 to 1 (≈ 0.355 to 1.42 µM) | 0.25 to 1 (≈ 0.355 to 1.42 µM) | 1.1 to 2 (≈ 1.56 to 2.84 µM) | 0.25 to 1 (≈ 0.355 to 1.42 µM)
7 | Cc1c(-n2nccn2)sc2c1c(=O)n(C(C)(C)C(=O)NC(C)C)c(=O)n2C[C@H](OC1CCOCC1)c1cc(F)ccc1OCC1COC1 [Compound I-108] | 1 to 5 | 1 to 5 | – | – | – | – | – | – | 1 to 5 | 1 to 5 | 0.25 to 1 (≈ 0.365 to 1.46 µM) | 0.25 to 1 (≈ 0.365 to 1.46 µM) | 0.25 to 1 (≈ 0.365 to 1.46 µM) | 0.25 to 1 (≈ 0.365 to 1.46 µM) | 0.25 to 1 (≈ 0.365 to 1.46 µM) | 0.25 to 1 (≈ 0.365 to 1.46 µM)
8 | COCCOc1ccc(F)cc1[C@H](Cn1c(=O)n(C(C)(C)C(=O)N2CCCC2)c(=O)c2c(C)c(-n3nccn3)sc21)OC1CCOCC1 [Compound I-109] | 1 to 5 | 1 to 5 | – | – | – | – | – | – | 1 to 5 | 1 to 5 | 0.25 to 1 (≈ 0.365 to 1.46 µM) | 0.25 to 1 (≈ 0.365 to 1.46 µM) | 0.25 to 1 (≈ 0.365 to 1.46 µM) | 1.01 to 2 (≈ 1.47 to 2.92 µM) | 0.25 to 1 (≈ 0.365 to 1.46 µM) | 1.01 to 2 (≈ 1.47 to 2.92 µM)
9 | Cc1c(-n2nccn2)sc2c1c(=O)n(C(C)(C)C(=O)N1CCCC1)c(=O)n2C[C@H](OC1CCOCC1)c1cc(F)ccc1OCC1COC1 [Compound I-110] | 5 to 10 | 5 to 10 | – | – | – | – | – | – | 1 to 5 | 1 to 5 | 0.25 to 1 (≈ 0.359 to 1.44 µM) | 0.25 to 1 (≈ 0.359 to 1.44 µM) | 0.25 to 1 (≈ 0.359 to 1.44 µM) | 1.01 to 2 (≈ 1.45 to 2.87 µM) | 0.25 to 1 (≈ 0.359 to 1.44 µM) | 1.01 to 2 (≈ 1.45 to 2.87 µM)
